Reference: patent publication US20220175675A1, “ENCAPSULATING MOLECULES IN FAT GLOBULES” (The Regents of the University of California, priority 2019, published 2022)
Marks after values point to notes of the source that are not given here.

Assays:
[1] = Measured or estimated, from references; cited from earlier work
[2] = Encapsulation of hydrophobic compounds into milk fat globules (loading capacity, encapsulation efficiency); format: physicochemical, bovine; conditions: for maximal loading capacity (LC): maximal value over 50-2500 μM; for encapsulation efficiency (EE %), maximal/overall value: over tested concentrations
Protocol: Raw milk was procured from a local market and stored at 4° C. Milk was used for up to 4 days post purchase. MFGs were separated from raw milk using centrifugal separation following a modified version of the method by Gallier et al. (2010) (12). First, raw milk was diluted with Milli-Q water at 9:1 water to milk, and the solution was centrifuged at 3,000×g for 5 min using a fixed angle centrifuge rotor. Cream was then skimmed off the sides of the centrifuged tubes after discarding the aqueous phase. In order to remove more of the milk serum components, cream was reconstituted in water to reach 4% w/v, and subjected to another step of centrifugation at 3,000×g for 5 min Cream was collected as detailed prior, then reconstituted to 20% w/v in Milli-Q water. All separation steps were completed at room temperature.
Encapsulation of test compounds in MFGs was accomplished by mixing ethanolic stock solution of a compound with 20% w/v cream suspended in water. The mixture was gently inverted several times to mix, then allowed in incubate in the dark.
To test the effect of incubation temperature on the partitioning and encapsulation yield and efficiency, RA was added at 250 μM concentration and was allowed to incubate with MFGs for 30 min at 4, 22, and 40° C.
To quantify the amount of compound encapsulated in MFGs, cream was separated from ethanol-containing aqueous phase via centrifugal separation at 3,000 x g for 5 min. Cream was skimmed and added to methanol at 50 mg/mL and vortexed vigorously for 1 min, then centrifuged at 16,000×g for 10 min. Top layer of methanol was collected and absorbance was measured at appropriate wavelength for each compound. An absorbance blank was prepared following the same encapsulation and separation steps in the absence of compound. λmax in methanol (nm) for each compound is reported in Table 1.
Cream (20% w/v in Milli-Q water) that was separated following the steps in Example 2 was further separated via centrifugation at 3,000×g for 5 min. Fat content in cream was measured using a modified Folch method (13). An additional washing step was incorporated where the chloroform/water interface was washed with 1:1 water/methanol solution.

[3] = as above; format: physicochemical, bovine; conditions: 250 μM, 1% v/v ethanol, room temperature
[4] = Water/octanol partitioning coefficient, Log P
[5] = 150 μM added compound, 10% v/v ethanol, 30 min, room temperature
[6] = 200 μM added compound, 10% v/v ethanol, 30 min, room temperature
[7] = 250 μM added compound, 10% v/v ethanol, 30 min, room temperature
[8] = 500 μM added compound, 10% v/v ethanol, 30 min, room temperature
[9] = 1000 μM added compound, 10% v/v ethanol, 30 min, room temperature
[10] = 1500 μM added compound, 10% v/v ethanol, 30 min, room temperature
[11] = 2000 μM added compound, 10% v/v ethanol, 30 min, room temperature
[12] = 2500 μM added compound, 10% v/v ethanol, 30 min, room temperature
[13] = 10% v/v ethanol, 30 min, room temperature
[14] = 1% v/v ethanol, 250 μM, 30 min, room temperature
[15] = 2% v/v ethanol, 250 μM, 30 min, room temperature
[16] = 4% v/v ethanol, 250 μM, 30 min, room temperature
[17] = 4 °C, 30 min, 250 μM, 1% v/v ethanol
[18] = 6% v/v ethanol, 250 μM, 30 min, room temperature
[19] = 8% v/v ethanol, 250 μM, 30 min, room temperature
[20] = 10% v/v ethanol, 250 μM, 30 min, room temperature
[21] = 22 °C, 30 min, 250 μM, 1% v/v ethanol
[22] = 40 °C, 30 min, 250 μM, 1% v/v ethanol
[23] = 40 °C, 30 min, 250 μM, 1% v/v ethanol, listed as RA
[24] = 30 min incubation, 250 μM, 1% v/v ethanol, room temperature

C=CCc1ccc(O)c(OC)c1 [Eugenol]
logP (physchem): ~2.6
Water/octanol partitioning coefficient, Log P [1]: 2.61-2.66 ^(18)
% Encapsulation efficiency [2, 5]: 98.05 ± 4.10%
% Encapsulation efficiency [2, 6]: 95.43 ± 7.46%
% Encapsulation efficiency [2, 7]: 86.64 ± 7.23%
% Encapsulation efficiency [2, 8]: 85.14 ± 6.33%
% Encapsulation efficiency [2, 9]: 80.94 ± 2.42 %
% Encapsulation efficiency [2, 10]: 82.09 ± 134 %
% Encapsulation efficiency [2, 11]: 80.86 ± 2.58 %
% Encapsulation efficiency [2, 12]: 80.71 ± 3.39 %
maximal loading capacity (LC) [2, 13]: 39.65 μg per gram of milk fat
encapsulation efficiency (EE %), maximal/overall value ([2]; 10% v/v ethanol, 30 min): approximately 98%

CC(=O)OC/C=C(C)/C=C/C=C(C)/C=C/C1=C(C)CCCC1(C)C [Retinyl acetate]
Water/octanol partitioning coefficient, Log P [1]: 6.3-9.81 ^(21, 23)
Loading capacity ([3]; 10 min incubation): 5.11 ± 0.46^ μg retinyl acetate/g of milk f
Loading capacity ([3]; 20 min incubation): 6.45 ± 0.63 μg retinyl acetate/g of milk f
Loading capacity ([3]; 40 min incubation): 7.76 ± 0.50 μg retinyl acetate/g of milk f
% Encapsulation efficiency ([3]; 50 min incubation): 89.38 ± 4.66 %
Loading capacity ([3]; 60 min incubation): 9.28 ± 0.22 *†‡¥ μg retinyl acetate/g of milk f
Loading capacity ([3]; 60 min incubation, listed as RA): 9.28 μg retinyl acetate/g of milk f
% Encapsulation efficiency ([2]; 50 μM added compound, 10% v/v ethanol, 30 min, room temperature): 107.46 ± 6.29%
% Encapsulation efficiency ([2]; 100 μM added compound, 10% v/v ethanol, 30 min, room temperature): 100.56 ± 3.83%
% Encapsulation efficiency [2, 5]: 111.73 ± 6.32%
% Encapsulation efficiency [2, 6]: 110.33 ± 3.15%
% Encapsulation efficiency [2, 7]: 105.92 ± 4.41%
% Encapsulation efficiency [2, 8]: 76.40 ± 9.65 %
% Encapsulation efficiency [2, 9]: 86.09 ± 12.48 %
% Encapsulation efficiency [2, 10]: 82.14 ± 15.94 %
% Encapsulation efficiency [2, 11]: 76.89 ± 9.88 %
% Encapsulation efficiency [2, 12]: 75.45 ± 5.19 %
% Encapsulation efficiency [2, 14]: 77.86 ± 5.54^ %
Loading capacity [2, 14]: 7.65 ± 0.54^ μg retinyl acetate/g of milk f
Loading capacity ([2]; 1% v/v ethanol, 250 μM, 30 min, room temperature, listed as RA): 7.6 μg retinyl acetate/g of milk f
EE % range with increased ethanol concentration ([2]; 1 to 10% v/v ethanol, 250 μM, 30 min): 78-107%
% Encapsulation efficiency [2, 15]: 83.40 ± 11.73%
Loading capacity [2, 15]: 8.20 ± 1.15^ μg retinyl acetate/g of milk f
% Encapsulation efficiency [2, 16]: 101.24 ± 4.76 %
Loading capacity [2, 16]: 9.95 ± 0.47 μg retinyl acetate/g of milk f
% Encapsulation efficiency [2, 17]: 53.52 ± 3.97 ^a %
Loading capacity [2, 17]: 5.26 ± 0.39 ^a μg retinyl acetate/g of milk f
% Encapsulation efficiency [2, 18]: 106.90 ± 10.93 %
Loading capacity [2, 18]: 10.51 ± 1.07 μg retinyl acetate/g of milk f
% Encapsulation efficiency [2, 19]: 107.65 ± 6.42 %
Loading capacity [2, 19]: 10.58 ± 0.63 μg retinyl acetate/g of milk f
% Encapsulation efficiency [2, 20]: 107.53 ± 5.15 %
Loading capacity [2, 20]: 10.57 ± 0.51 μg retinyl acetate/g of milk f
Loading capacity ([2]; 10% v/v ethanol, 250 μM, 30 min, room temperature, listed as RA): 10.57 μg retinyl acetate/g of milk f
% Encapsulation efficiency [2, 21]: 72.07 ± 3.85 ^b %
Loading capacity [2, 21]: 7.08 ± 0.38 ^b μg retinyl acetate/g of milk f
% Encapsulation efficiency [2, 22]: 124.42 ± 6.52 ^c %
Loading capacity [2, 22]: 12.23 ± 0.64 ^c μg retinyl acetate/g of milk f
% Encapsulation efficiency [2, 23]: 124.42%
Loading capacity [2, 23]: 12.23 μg retinyl acetate/g of milk f
% Encapsulation efficiency ([2]; 10 min incubation, 250 μM, 1% v/v ethanol, room temperature): 52.02 ± 4.66^ %
% Encapsulation efficiency ([2]; 20 min incubation, 250 μM, 1% v/v ethanol, room temperature): 65.66 ± 6.40 %
% Encapsulation efficiency [2, 24]: 76.11 ± 0.89 %
Loading capacity [2, 24]: 7.48 ± 0.09 μg retinyl acetate/g of milk f
% Encapsulation efficiency ([2]; 40 min incubation, 250 μM, 1% v/v ethanol, room temperature): 78.98 ± 5.13 %
Loading capacity ([2]; 50 min incubation, 250 μM, 1% v/v ethanol, room temperature): 8.78 ± 0.46 μg retinyl acetate/g of milk f
% Encapsulation efficiency ([2]; 60 min incubation, 250 μM, 1% v/v ethanol, room temperature): 94.38 ± 2.25 *†‡¥ %
maximal loading capacity (LC) [2, 13]: 74.15 μg per gram of milk fat
encapsulation efficiency (EE %), maximal/overall value ([2]; 10% v/v ethanol, 30 min): ≥ 100%
logP [4]: ~8
